Measurements taken from patent US5208344A, “Naphthalenepropionic acid derivatives as anti-inflammatory/antiallergic agents” (American Home Products Corporation, priority 1991, dated 1993).
Counter-ions that a name gives are not always drawn.

What was measured:
Assay type in all cases: cell-based
cyclooxygenase = experiment: inhibition of synthesis of cyclooxygenase products TxB2 and PGE2 (rat polymorphonuclear leukocytes); details: 10 μM; rat PMN; negative = potentiation of PGE2 synthesis
Procedure, shortened: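 Glycogen-elicited peritoneal PMN from female Wistar rats, 2×10^7 cells/ml in HBSS with Ca^++, Mg^++ and 10 mM L-cysteine, preincubated with compound 10 min at 37° C. Stimulated 10 min with A23187 (10 μM) plus 0.5 μM [14C] arachidonic acid; TxB2 and PGE2 quantified by TLC, autoradiography and scintillation counting.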

LTD4 = target: T1, LTD4 (Cavia porcellus, UniProt Q2NNR5); experiment: LTD4 antagonist activity in isolated guinea pig trachea; details: 1 × 10^-5 M
T1 construct: isolated guinea pig trachea; from tissue; host or cells: guinea pig tracheal rings
T1 sequence (Q2NNR5 1-340): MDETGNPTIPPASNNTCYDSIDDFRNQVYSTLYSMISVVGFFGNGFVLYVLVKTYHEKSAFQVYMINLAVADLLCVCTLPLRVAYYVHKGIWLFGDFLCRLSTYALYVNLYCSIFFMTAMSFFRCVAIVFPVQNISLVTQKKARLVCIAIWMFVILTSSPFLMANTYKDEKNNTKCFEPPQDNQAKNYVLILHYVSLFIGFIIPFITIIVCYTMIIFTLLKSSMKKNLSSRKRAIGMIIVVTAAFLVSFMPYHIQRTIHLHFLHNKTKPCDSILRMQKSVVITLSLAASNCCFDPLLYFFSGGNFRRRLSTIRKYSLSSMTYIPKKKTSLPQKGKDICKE
Protocol: The LTD4 antagonist activity of the compounds of the invention is assessed in the in vitro isolated guinea pig trachea assay. Male Hartley guinea pigs (350-400 g) are euthanized by a blow to the head, the neck is opened and the trachea removed. The trachea is maintained in aerated physiological salt solution, cleared of connective tissue and fat and cut into rings approximately 2 mm in width (usually containing two cartilaginous segments per ring). Two pieces of silk suture are then passed through the lumen of the tracheal ring and are tied around the cartilage, one on each side of the trachealis muscle. The tracheal ring is suspended between a glass hook and a force displacement transducer in a 10 ml organ bath for measurement of isometric tension. Tissues are maintained at 37° C. in aerated ([…] /5% CO2) physiological salt solution of the following composition: […] The tracheal rings are maintained at 2 g resting tension and equilibrated for 45 minutes (with frequence washing and readjustment of resting tension). The tracheal rings are first contracted by the addition of carbachol (3×10^-6 M), to determine tissue responsiveness and establish a reference contraction. On attainment of a stable level of contraction (approximately 30 minutes), the tissues are washed several times until baseline tension has been restored and the re-equilibrated for 30 minutes. The tissues are then incubated for 45 minutes with a test antagonist (either 1×10^-6 M or 1×10^-5 M) or 10 μl of an appropriate solvent control (control, non-treated). One tissue in each group serves as the control. Twenty minutes prior to the construction of the LTD4 cumulative concentration-response curve, L-[…]×10^-2 M final bath concentration) is added to inhibit bioconversion of LTD4 to LTE4. Only one LTD4 concentration-response curve is constructed in each tissue. All responses to LTD4 in an individual tissue are measured as a percentage of the reference contraction of that tissue to carbachol. LTD4 antagonist activity is determined by comparison of the concentration response curves of LTD4 in the presence and absence of antagonist. Assessment of the relative rightward shift of the antagonist treated curve relative to the solvent (control) treated tissue is calculated as a concentration ratio (Eq. A) and used in subsequent calculations to derive an antagonist pKB value (Eqs. B and C). In the vent that the maximum response to LTD4 is depressed, the EC50 for that particular curve is determined, an "apparent" pKB reported, and the compound reported as "not-competitive." [formula] If a compound is found to be active and/or depress the maximal response to LTD4, then a range of concentrations of the test compound should be used generating multiple concentration ratios which would than be used to perform a Schild analysis, and determination of a pA2 value where appropriate.

5-lipoxygenase = target: T2, 5-lipoxygenase (Rattus norvegicus, UniProt P12527); experiment: inhibition of 5-HETE synthesis by rat glycogen elicited polymorphonuclear leukocytes; details: 10 μM, rat PMN, negative = potentiation of 5-HETE synthesis
T2 construct: Peritoneal PMN are obtained from female Wistar rats (150-250 g); endogenous in cells; host or cells: rat glycogen-elicited peritoneal polymorphonuclear leukocytes, intact
T2 sequence (P12527 1-673): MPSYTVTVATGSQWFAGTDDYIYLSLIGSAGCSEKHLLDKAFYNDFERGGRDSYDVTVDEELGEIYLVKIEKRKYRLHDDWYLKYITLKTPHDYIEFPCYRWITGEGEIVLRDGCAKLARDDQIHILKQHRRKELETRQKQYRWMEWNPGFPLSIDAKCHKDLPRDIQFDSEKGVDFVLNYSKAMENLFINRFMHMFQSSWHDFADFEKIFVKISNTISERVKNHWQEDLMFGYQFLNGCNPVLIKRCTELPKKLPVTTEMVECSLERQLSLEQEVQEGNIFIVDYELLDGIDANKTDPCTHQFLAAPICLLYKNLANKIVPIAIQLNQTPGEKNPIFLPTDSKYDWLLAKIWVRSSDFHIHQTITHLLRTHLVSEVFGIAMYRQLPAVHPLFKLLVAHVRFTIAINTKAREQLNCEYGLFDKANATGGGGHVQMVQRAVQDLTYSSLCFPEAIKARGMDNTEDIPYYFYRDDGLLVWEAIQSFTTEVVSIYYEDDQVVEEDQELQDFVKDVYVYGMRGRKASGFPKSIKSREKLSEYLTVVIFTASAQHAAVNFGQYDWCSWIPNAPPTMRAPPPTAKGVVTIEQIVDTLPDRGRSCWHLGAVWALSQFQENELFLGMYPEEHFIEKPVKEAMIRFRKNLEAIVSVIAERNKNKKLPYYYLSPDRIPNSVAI
Procedure, shortened: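 Peritoneal PMN from female Wistar rats given i.p. glycogen 24 h earlier were preincubated with compound for 10 min at 37° C (2×10^7 cells/ml, 10 mM L-cysteine). They were then stimulated 10 min with 10 μM A23187 plus 0.5 μM [14C]arachidonic acid. 5-HETE was separated by TLC and quantified by scintillation.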

In the case of `C[C@H](C(=O)O)c1ccc2cc(OCc3ccc4ccccc4n3)ccc2c1` [Example 17, S-(α)-α-Methyl-6-(2-quinolinylmethoxy)-2-naphthaleneacetic acid, tromethanime salt], the “% Inhibition of CO (as PGE2)” value (cyclooxygenase) is reported as 20%, the Kb (LTD4) is reported as 631 nM and the “% Inhibition of 5-LO (as 5-HETE)” value (5-lipoxygenase) is reported as 85%.
In the case of `C[C@H](C(=O)N(C)O)c1ccc2cc(OCc3ccc4ccccc4n3)ccc2c1` [Example 24, (S)-N-Hydroxy-α-N-dimethyl-6-(2-quinolinylmethoxy)-2-naphthaleneacetamide], the “% Inhibition of CO (as PGE2)” value (cyclooxygenase) is reported as 13%, the Kb (LTD4) is reported as 501 nM and the inhibition at 10 µM (5-lipoxygenase; read-out: % Inhibition of 5-LO (as 5-HETE)) is reported as 100%.
